# Measurements reported in EPA's ToxValDB 9.5.
# Key:
# Mus musculus [1] = settings: chronic; duration: 2 years; inhalation; M/F; degenerative lesions of the nasal cavity
# Rattus norvegicus [2] = settings: oral
# Mus musculus [3] = settings: short-term, duration: 28 days, oral, gavage, M, C57BL/6
# Rattus norvegicus [4] = settings: oral, gavage; for NEL / LEL: Crl:CD(SD) BR; for LOAEL / NOAEL: Sprague-Dawley
# [5] = Liver: Catalase (CAT) Activity, Liver + Multi-organ: Interleukin 1 Beta (IL-1b) mRNA + Spleen: Interleukin 6 (IL-6) mRNA
# [6] = Liver: Superoxide Dismutase (SOD) Activity + Multi-organ: Catalase (CAT) Activity, Blood + Multi-organ: Interleukin 1 Beta (IL-1b), Serum + …
# [7] = chronic, duration: 92 days, M, Blood: Hematocrit (HCT) + Blood: Hemoglobin (HGB) + Blood: Red Cell Distribution Width (RDW) + Blood: Reticulocytes + Blood: Total Protein (…
# [8] = chronic, duration: 92 days, M, Blood: Mean Corpuscular Volume (MCV) + Blood: Red Blood Cell (RBC) + Kidney: Tubular Hypertrophy + Liver: Liver Weight, Relative + Liver: …
# [9] = chronic, duration: 92 days, M, Cardiovascular: Aorta: Aorta Histopathology + Cardiovascular: Heart: Heart Histopathology + Cardiovascular: Heart: Heart Weight, Absolute + …
# [10] = chronic, duration: 92 days, M, Hematologic: Blood: Activated Partial Thromboplastin Time (APTT) + Hematologic: Blood: Hematocrit (HCT) + Hematologic: Blood: Hemoglobin (…
# [11] = chronic, duration: 93 days, F, Blood: Hematocrit (HCT) + Blood: Hemoglobin (HGB) + Blood: Red Blood Cell (RBC) + Blood: Red Cell Distribution Width (RDW) + Blood: …
# [12] = chronic, duration: 93 days, F, Liver: Liver Weight, Absolute + Liver: Liver Weight, Relative
# [13] = chronic, duration: 93 days, F, Cardiovascular: Aorta: Aorta Histopathology + Cardiovascular: Heart: Heart Histopathology + Cardiovascular: Heart: Heart Weight, Absolute + …
# [14] = chronic, duration: 93 days, F, Hematologic: Blood: Activated Partial Thromboplastin Time (APTT) + Hematologic: Blood: Hematocrit (HCT) + Hematologic: Blood: Hemoglobin (…
# [15] = developmental, duration: 14 days, M/F, generation: F1, F1: Pelvis: Litters with Pelvis, Incomplete Ossification + F1: Pelvis: Pelvis, Incomplete Ossification + F1: Rib: Litters with Rib, Wavy + …
# [16] = developmental, duration: 14 days, M/F, generation: F1, F1: Skull: Litters with Skull, Incomplete Ossification + F1: Skull: Skull, Incomplete Ossification
# [17] = developmental, duration: 14 days, M/F, generation: F1, F1: Developmental: Head: Fetal Alterations Count, Head Malformations + F1: Developmental: Head: Litters with Head Malformations + F1: …
# [18] = developmental, duration: 14 days, M/F, generation: F1, F1: Developmental: Rib: Rib, Wavy + F1: Developmental: Skull: Litters with Skull, Incomplete Ossification + F1: Developmental: Sternebra: …
# [19] = reproduction developmental, duration: 14 days, F, generation: P0, P0: Fur: Stained Fur + P0: Hair/Fur: Alopecia + P0: Intestine: Soft or Liquid Feces + P0: Whole Body: Hunched Posture + P0: Whole Body: …
# [20] = reproduction developmental, duration: 14 days, F, generation: P0, P0: Developmental: Uterus: Implantation
# [21] = reproduction developmental, duration: 14 days, F, generation: P0, P0: Developmental: Uterus: Implantation + P0: Developmental: Uterus: Resorptions, Mean/Litter + P0: Developmental: Whole Body: No. Male Pups…
# [22] = reproduction developmental, duration: 14 days, F, generation: P0, P0: Developmental: Whole Body: No. Male Pups per No. of Pups Sexed + P0: General Toxicity: Whole Body: Hunched Posture + P0: General …
compound,measurement,setting,value
"CCC1CO1 (stereo not given) [1,2-Epoxybutane]",LOAEL,Mus musculus [1],147 mg/m3
"ClCCCCl [1,3-Dichloropropane]",NOAEL,"Rattus norvegicus [2]; subchronic, duration: 90 days, gavage, M/F, Sprague-Dawley, Hepatic, Urinary",50 mg/kg-day
"Cc1c(N)cccc1N [2,6-Toluenediamine]",NOAEL,"Rattus norvegicus [2]; chronic, duration: 2 years, diet, M, Fischer 344, Whole Body Effects",25 mg/kg-day
same,NOAEL,"Rattus norvegicus [2]; chronic, duration: 91 days, diet, M, Fischer 344, Whole Body Effects",62 mg/kg-day
OCCC(F)(F)C(F)(F)C(F)(F)C(F)(F)C(F)(F)C(F)(F)C(F)(F)C(F)(F)F [2-(Perfluorooctyl)ethanol],LEL,Mus musculus [3]; [5],100 mg/kg-day
same,NEL,Mus musculus [3]; [5],30 mg/kg-day
same,NEL,"Mus musculus [3]; Liver: Glutathione (GSH), Liver + Multi-organ: Chemokine C-X-C motif Ligand 1 (CXCL-1), Serum + Multi-organ: Interleukin 6 (IL-6) mRNA + …",100 mg/kg-day
same,LEL,"Mus musculus [3]; Liver: Liver Histopathology + Liver: Liver Weight, Absolute + Liver: Liver Weight, Relative + Multi-organ: Chemokine C-X-C motif Ligand 1 (…",10 mg/kg-day
same,LEL,Mus musculus [3]; [6],30 mg/kg-day
same,NEL,Mus musculus [3]; [6],10 mg/kg-day
same,NEL,"Rattus norvegicus [4]; chronic, duration: 92 days, M, Adrenal: Adrenal Gland Histopathology + Adrenal: Adrenal Gland Weight, Absolute + Adrenal: Adrenal Gland Weight, Relative + Aorta: Aorta …",125 mg/kg-day
same,LEL,Rattus norvegicus [4]; [7],125 mg/kg-day
same,NEL,Rattus norvegicus [4]; [7],25 mg/kg-day
same,LEL,Rattus norvegicus [4]; [8],25 mg/kg-day
same,NEL,Rattus norvegicus [4]; [8],5 mg/kg-day
same,LEL,"Rattus norvegicus [4]; chronic, duration: 92 days, M, Liver: Cholesterol (CHOL), Total, Blood + Thyroid: Colloid Alteration",1 mg/kg-day
same,LOAEL,Rattus norvegicus [4]; [9],1 mg/kg-day
same,NOAEL,Rattus norvegicus [4]; [9],125 mg/kg-day
same,LOAEL,"Rattus norvegicus [4]; chronic, duration: 92 days, M, Endocrine: Adrenal: Adrenal Gland Histopathology + Endocrine: Adrenal: Adrenal Gland Weight, Absolute + Endocrine: Adrenal: Adrenal Gland …",1 mg/kg-day
same,LOAEL,Rattus norvegicus [4]; [10],25 mg/kg-day
same,NOAEL,Rattus norvegicus [4]; [10],5 mg/kg-day
same,NEL,"Rattus norvegicus [4]; chronic, duration: 93 days, F, Adrenal: Adrenal Gland Histopathology + Adrenal: Adrenal Gland Weight, Absolute + Adrenal: Adrenal Gland Weight, Relative + Aorta: Aorta …",125 mg/kg-day
same,LEL,Rattus norvegicus [4]; [11],125 mg/kg-day
same,NEL,Rattus norvegicus [4]; [11],25 mg/kg-day
same,LEL,Rattus norvegicus [4]; [12],25 mg/kg-day
same,NEL,Rattus norvegicus [4]; [12],5 mg/kg-day
same,LOAEL,Rattus norvegicus [4]; [13],1 mg/kg-day
same,NOAEL,Rattus norvegicus [4]; [13],125 mg/kg-day
same,LOAEL,"Rattus norvegicus [4]; chronic, duration: 93 days, F, Endocrine: Adrenal: Adrenal Gland Histopathology + Endocrine: Adrenal: Adrenal Gland Weight, Absolute + Endocrine: Adrenal: Adrenal Gland …",1 mg/kg-day
same,LOAEL,Rattus norvegicus [4]; [14],25 mg/kg-day
same,NOAEL,Rattus norvegicus [4]; [14],5 mg/kg-day
same,NEL,"Rattus norvegicus [4]; developmental, duration: 14 days, M/F, generation: F1, F1: Head: Fetal Alterations Count, Head Malformations + F1: Head: Litters with Head Malformations + F1: Kidney: Litters with Small Renal …",500 mg/kg-day
same,LEL,Rattus norvegicus [4]; [15],500 mg/kg-day
same,NEL,Rattus norvegicus [4]; [15],200 mg/kg-day
same,LEL,Rattus norvegicus [4]; [16],200 mg/kg-day
same,NEL,Rattus norvegicus [4]; [16],50 mg/kg-day
same,LOAEL,Rattus norvegicus [4]; [17],200 mg/kg-day
same,NOAEL,Rattus norvegicus [4]; [17],20 mg/kg-day
same,LOAEL,Rattus norvegicus [4]; [18],500 mg/kg-day
same,NOAEL,Rattus norvegicus [4]; [18],200 mg/kg-day
same,LEL,Rattus norvegicus [4]; [19],500 mg/kg-day
same,NEL,Rattus norvegicus [4]; [19],200 mg/kg-day
same,NEL,"Rattus norvegicus [4]; reproduction developmental, duration: 14 days, F, generation: P0, P0: Ovary: Corpora Lutea + P0: Uterus: Implantation + P0: Uterus: Resorptions, Mean/Litter + P0: Whole Body: Male Pups per Pups Sexed",500 mg/kg-day
same,LOAEL,Rattus norvegicus [4]; [20],500 mg/kg-day
same,NOAEL,Rattus norvegicus [4]; [20],200 mg/kg-day
same,LOAEL,Rattus norvegicus [4]; [21],200 mg/kg-day
same,NOAEL,Rattus norvegicus [4]; [21],20 mg/kg-day
same,NOAEL,"Rattus norvegicus [4]; reproduction developmental, duration: 14 days, F, generation: P0, P0: Developmental: Uterus: Resorptions, Mean/Litter",500 mg/kg-day
same,LOAEL,Rattus norvegicus [4]; [22],200 mg/kg-day
same,NOAEL,Rattus norvegicus [4]; [22],20 mg/kg-day
